Experimental data taken from patent US20240294531A1, “COVALENT HETEROCYCLES AND USES THEREOF” (Kumquat Biosciences Inc., priority 2022, published 2024).

Tests used:
[1] = molecular target: BTK wildtype protein (Homo sapiens (Human), UniProt Q06187); test: BTK wildtype HTRF displacement assay; format: binding; conditions: 1-hour incubation; read-out: BTK (wt) IC50
Outline: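 Full-length N-terminal GST-tagged BTK incubated 1 h at room temperature with compound (6 doses, four-fold dilutions from 5 μM top) plus kinase tracer 239 and anti-GST-Tb antibody. Tracer displacement read as TR-FRET 665/620 ratio, background-subtracted using no-protein control. IC50 from four-parameter fit constrained 0–100% inhibition.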

[2] = molecular target: BTK C481S protein (Homo sapiens (Human), UniProt Q06187, C481S); test: BTK C481S HTRF displacement assay; format: binding; conditions: 1-hour incubation
Outline: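 N-terminal GST-tagged BTK C481S (2-659) incubated 1 hour at room temperature with compound (6 doses, four-fold from 5 μM), 50 nM kinase tracer 239 and anti-GST-Tb antibody. TR-FRET 665/620 ratio, background-subtracted; IC50 from constrained four-parameter fit. KI=IC50/(1+[Tracer]/Kd), tracer Kd 54 nM.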

BTK C481S protein, sequence (Q06187 2-659 C481S): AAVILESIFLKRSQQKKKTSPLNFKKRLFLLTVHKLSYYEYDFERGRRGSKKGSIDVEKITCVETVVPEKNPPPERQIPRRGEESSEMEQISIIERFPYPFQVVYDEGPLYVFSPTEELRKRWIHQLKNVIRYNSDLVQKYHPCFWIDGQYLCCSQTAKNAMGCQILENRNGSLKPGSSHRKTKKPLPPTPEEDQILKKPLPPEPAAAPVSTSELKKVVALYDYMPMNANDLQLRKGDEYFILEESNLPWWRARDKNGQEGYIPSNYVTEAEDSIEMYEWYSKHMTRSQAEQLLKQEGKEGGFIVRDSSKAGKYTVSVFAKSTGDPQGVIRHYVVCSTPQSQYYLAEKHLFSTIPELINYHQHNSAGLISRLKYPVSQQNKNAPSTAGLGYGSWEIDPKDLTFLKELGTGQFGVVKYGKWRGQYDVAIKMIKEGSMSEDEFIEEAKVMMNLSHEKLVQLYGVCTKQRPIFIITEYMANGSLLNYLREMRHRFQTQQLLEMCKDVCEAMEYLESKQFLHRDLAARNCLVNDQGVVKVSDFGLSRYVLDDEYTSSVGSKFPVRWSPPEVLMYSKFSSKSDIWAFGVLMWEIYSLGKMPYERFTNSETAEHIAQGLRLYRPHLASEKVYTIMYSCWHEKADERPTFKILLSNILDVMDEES
BTK wildtype protein, sequence (Q06187 2-659): as the sequence (Q06187 2-659 C481S) above, with S480C counted along it

Compound	IC50 [1] [nM]	IC50 [2] [nM]
COc1ccc(C)cc1C(=O)NCc1ccc(-c2nn(CC3CCCCN3C(=O)n3cnnn3)c3ncnc(N)c23)cc1 (centres unmarked) [Compound 158, N-(4-(1-((1-(1H-tetrazole-1-carbonyl)piperidin-2-yl)methyl)-4-amino-1H-pyrazolo[3,4-d]pyrimidin-3-yl)benzyl)-2-methoxy-5-methylbenzamide]	≤ 1000	> 1000
Cc1[nH]c2c(C(N)=O)cc(F)c(N3CCC(N(C)C(=O)n4cncn4)C3)c2c1C (centres unmarked) [Compound 128, 5-fluoro-2,3-dimethyl-4-(3-(N-methyl-1H-1,2,4-triazole-1-carboxamido)pyrrolidin-1-yl)-1H-indole-7-carboxamide]	≤ 1000	≤ 1000
COc1ccc(F)cc1C(=O)NCc1ccc(-c2nn(CC3CCC(O)CN3C(=O)n3cncn3)c3ncnc(N)c23)cc1 (centres unmarked) [Compound 246, N-(4-(4-amino-1-((5-hydroxy-1-(1H-1,2,4-triazole-1-carbonyl)piperidin-2-yl)methyl)-1H-pyrazolo[3,4-d]pyrimidin-3-yl)benzyl)-5-fluoro-2-methoxybenzamide]	≤ 1000	≤ 1000
COc1ccc(F)cc1C(=O)NCc1ccc(-c2nn(CC3CC(O)CCN3C(=O)n3cncn3)c3ncnc(N)c23)cc1 (centres unmarked) [Compound 298, N-(4-(4-amino-1-((4-hydroxy-1-(1H-1,2,4-triazole-1-carbonyl)piperidin-2-yl)methyl)-1H-pyrazolo[3,4-d]pyrimidin-3-yl)benzyl)-5-fluoro-2-methoxybenzamide]	> 1000	> 1000
COc1ccc(F)cc1C(=O)NCc1ccc(-c2nn(C(Cc3ccccn3)CN(C)C(=O)n3cncn3)c3ncnc(N)c23)cc1 (centres unmarked) [Compound 268, N-(2-(4-amino-3-(4-((5-fluoro-2-methoxybenzamido)methyl)phenyl)-1H-pyrazolo[3,4-d]pyrimidin-1-yl)-3-(pyridin-2-yl)propyl)-N-methyl-1H-1,2,4-triazole-1-carboxamide]	> 1000	> 1000
COc1ccc(F)cc1C(=O)NCc1ccc(-c2nn(C(C)CN(C)C(=O)n3cncn3)c(N)c2C(N)=O)cc1 (centres unmarked) [Compound 218, N-(2-(5-amino-4-carbamoyl-3-(4-((5-fluoro-2-methoxybenzamido)methyl)phenyl)-1H-pyrazol-1-yl)propyl)-N-methyl-1H-1,2,4-triazole-1-carboxamide]	≤ 1000	≤ 1000
COc1ccc(C)cc1C(=O)NCc1ccc(-c2nn(C3CCC(N(C)C(=O)n4cncn4)CC3)c3ncnc(N)c23)cc1 (centres unmarked) [Compound 258, N-(4-(4-amino-3-(4-((2-methoxy-5-methylbenzamido)methyl)phenyl)-1H-pyrazolo[3,4-d]pyrimidin-1-yl)cyclohexyl)-N-methyl-1H-1,2,4-triazole-1-carboxamide]	≤ 1000	≤ 1000
COc1ccc(F)cc1C(=O)NCc1ccc(-c2nn(CC3CCCCC3N(C)C(=O)n3cncn3)c3ncnc(N)c23)cc1 (centres unmarked) [Compound 126, N-(2-((4-amino-3-(4-((5-fluoro-2-methoxybenzamido)methyl)phenyl)-1H-pyrazolo[3,4-d]pyrimidin-1-yl)methyl)cyclohexyl)-N-methyl-1H-1,2,4-triazole-1-carboxamide]	≤ 1000	≤ 1000
CN(C(=O)n1cnc(Cl)n1)C1CCC(n2nc(-c3ccc(Oc4ccccc4)cc3)c3c(N)ncnc32)CC1 (centres unmarked) [Compound 299, N-(4-(4-amino-3-(4-phenoxyphenyl)-1H-pyrazolo[3,4-d]pyrimidin-1-yl)cyclohexyl)-3-chloro-N-methyl-1H-1,2,4-triazole-1-carboxamide]	≤ 1000	≤ 1000
NC(=O)c1c(-c2ccc(Oc3ccccc3)cc2)nn2c1NCCC2[C@@H]1CCCN1C(=O)n1cncn1 (stereo partly drawn) [Compound 280, 7-((S)-1-(1H-1,2,4-triazole-1-carbonyl)pyrrolidin-2-yl)-2-(4-phenoxyphenyl)-4,5,6,7-tetrahydropyrazolo[1,5-a] pyrimidine-3-carboxamide]	> 1000	≤ 1000
CC1CC(n2nc(-c3ccc(Oc4ccccc4)cc3)c3c(N)ncnc32)CCN1C(=O)n1cncn1 (centres unmarked) [Compound 144, (4-(4-amino-3-(4-phenoxyphenyl)-1H-pyrazolo[3,4-d]pyrimidin-1-yl)-2-methylpiperidin-1-yl)(1H-1,2,4-triazol-1-yl)methanone]	≤ 1000	≤ 1000
COc1ccc(F)cc1C(=O)NCc1ccc(-c2nn(-c3cccc(N(C)C(=O)n4cncn4)c3)c3ncnc(N)c23)cc1 [Compound 187, N-(3-(4-amino-3-(4-((5-fluoro-2-methoxybenzamido)methyl)phenyl)-1H-pyrazolo[3,4-d]pyrimidin-1-yl)phenyl)-N-methyl-1H-1,2,4-triazole-1-carboxamide]	≤ 1000	≤ 1000
COc1ccc(F)cc1C(=O)NCc1ccc(-c2nn(CCC3CCCCN3C(=O)n3cncn3)c3ncnc(N)c23)cc1 (centres unmarked) [Compound 146]	≤ 1000	≤ 1000
COc1ccc(F)cc1C(=O)NCc1ccc(-c2nn(C(CC3CC3)CN(C)C(=O)n3cncn3)c3ncnc(N)c23)cc1 (centres unmarked) [Compound 127, N-(4-(4-amino-3-(4-((5-fluoro-2-methoxybenzamido)methyl)phenyl)-1H-pyrazolo[3,4-d]pyrimidin-1-yl)-3-cyclopropylpropyl)-N-methyl-1H-1,2,4-triazole-1-carboxamide]	> 1000	> 1000
CC(CN(C)C(=O)n1cncn1)C1CCNc2c(C(N)=O)c(-c3ccc(Oc4ccccc4)cc3)nn21 (centres unmarked) [Compound 308, 7-(1-(N-methyl-1H-1,2,4-triazole-1-carboxamido)propan-2-yl)-2-(4-phenoxyphenyl)-4,5,6,7-tetrahydropyrazolo[1,5-a] pyrimidine-3-carboxamide]	≤ 1000	≤ 1000
COc1ccc(F)cc1C(=O)NCc1ccc(-c2nn(C(C)C3CCN(C(=O)n4cncn4)C3)c3ncnc(N)c23)cc1 (centres unmarked) [Compound 172, N-(4-(1-(1-(1-(1H-1,2,4-triazole-1-carbonyl)pyrrolidin-3-yl)ethyl)-4-amino-1H-pyrazolo[3,4-d]pyrimidin-3-yl)benzyl)-5-fluoro-2-methoxybenzamide]	≤ 1000	≤ 1000
COc1ccc(F)cc1C(=O)NCc1ccc(-c2nn(C(C)CN(C)C(=O)n3cncn3)c3ncnc(N)c23)cc1 (centres unmarked) [Compound 226, N-(2-(4-amino-3-(4-((5-fluoro-2-methoxybenzamido)methyl)phenyl)-1H-pyrazolo[3,4-d]pyrimidin-1-yl)propyl)-N-methyl-1H-1,2,4-triazole-1-carboxamide]	≤ 1000	≤ 1000
CN(C(=O)n1cncn1)C1CC(C2CCNc3c(C(N)=O)c(-c4ccc(Oc5ccccc5)cc4)nn32)C1 (centres unmarked) [Compound 115, 7-(3-(N-methyl-1H-1,2,4-triazole-1-carboxamido)cyclobutyl)-2-(4-phenoxyphenyl)-4,5,6,7-tetrahydropyrazolo[1,5-a]pyrimidine-3-carboxamide]	≤ 1000	≤ 1000
NC(=O)c1c(-c2ccc(Oc3ccccc3)cc2)nn(C2CCCN(C(=O)n3cncn3)C2)c1N (centres unmarked) [Compound 163, 1-(1-(1H-1,2,4-triazole-1-carbonyl)piperidin-3-yl)-5-amino-3-(4-phenoxyphenyl)-1H-pyrazole-4-carboxamide]	≤ 1000	≤ 1000
COc1ccc(F)cc1C(=O)NCc1ccc(-c2nn(CC3CCN(C(=O)n4cncn4)C3)c3ncnc(N)c23)cc1 (centres unmarked) [Compound 245, N-(4-(1-((1-(1H-1,2,4-triazole-1-carbonyl)pyrrolidin-3-yl)methyl)-4-amino-1H-pyrazolo[3,4-d]pyrimidin-3-yl)benzyl)-5-fluoro-2-methoxybenzamide]	≤ 1000	≤ 1000
COc1ccc(F)cc1C(=O)NCc1ccc(-c2nn(C(CC3CCC3)CN(C)C(=O)n3cncn3)c3ncnc(N)c23)cc1 (centres unmarked) [Compound 139, N-(2-(4-amino-3-(4-((5-fluoro-2-methoxybenzamido)methyl)phenyl)-1H-pyrazolo[3,4-d]pyrimidin-1-yl)-3-cyclobutylpropyl)-N-methyl-1H-1,2,4-triazole-1-carboxamide]	> 1000	> 1000
NC(=O)c1c(-c2ccc(Oc3ccccc3)cc2)nn2c1NCC1CN(C(=O)n3cncn3)CC12 (centres unmarked) [Compound 228, 2-(4-phenoxyphenyl)-7-(1H-1,2,4-triazole-1-carbonyl)-5,5a,6,7,8,8a-hexahydro-4H-pyrazolo[1,5-a] pyrrolo[3,4-e]pyrimidine-3-carboxamide]	> 1000	> 1000
COc1ccc(F)cc1C(=O)NCc1ccc(-c2nn(C(C)CN(C(=O)n3cncn3)C3CC3)c3ncnc(N)c23)cc1 (centres unmarked) [Compound 230, N-(2-(4-amino-3-(4-((5-fluoro-2-methoxybenzamido)methyl)phenyl)-1H-pyrazolo[3,4-d]pyrimidin-1-yl)propyl)-N-cyclopropyl-1H-1,2,4-triazole-1-carboxamide]	> 1000	≤ 1000
COc1ccc(F)cc1C(=O)NCc1ccc(-c2nn(CC3COCCN3C(=O)n3cncn3)c3ncnc(N)c23)cc1 (centres unmarked) [Compound 210, N-(4-(1-((4-(1H-1,2,4-triazole-1-carbonyl)morpholin-3-yl)methyl)-4-amino-1H-pyrazolo[3,4-d]pyrimidin-3-yl)benzyl)-5-fluoro-2-methoxybenzamide]	> 1000	> 1000
COc1ccc(F)cc1C(=O)NCc1ccc(-c2nn(C[C@@H]3C[C@H](F)CN3C(=O)n3cncn3)c3ncnc(N)c23)cc1 [Compound 208, N-(4-(4-amino-1-(((2S,4S)-4-fluoro-1-(1H-1,2,4-triazole-1-carbonyl)pyrrolidin-2-yl)methyl)-1H-pyrazolo[3,4-d]pyrimidin-3-yl)benzyl)-5-fluoro-2-methoxybenzamide]	≤ 1000	≤ 1000
